Values quoted from earlier work in patent US20100331420A1, “Combination Therapies for the Treatment of Obesity” (priority 2009, published 2010).

Settings: published studies of each weight loss medication

Structure (SMILES)	weight loss of body weight for drug compared with placebo
CC(C)CC(N(C)C)C1(c2ccc(Cl)cc2)CCC1 (stereo not drawn) [sibutramine]	about 5%
CCCCCCCCCCC[C@@H](C[C@@H]1OC(=O)[C@H]1CCCCCC)OC(=O)[C@H](CC(C)C)NC=O [orlistat]	about 5%
CCN[C@@H](C)Cc1cccc(C(F)(F)F)c1 [dexfenfluramine]	about 5%
